Usually inhibition of growth stands for the percentage by which the read-out fell short of the control. Usually melting point stands for the temperature of the solid-liquid transition.

Where “and” joins values, the source holds several entries; their conditions need not be identical. Identical values can stand only once.

In series [1] the test system is Glomerella lagenarium (Colletotrichum lagenarium). Put plainly: Glomerella lagenarium (Colletotrichum lagenarium) liquid culture / cucumber / preventative (anthracnose). In kind it is cell-based. To be noted: Colletotrichum orbiculare, liquid culture (PDB), growth inhibition measured photometrically 3-4 days after application, compared to untreated control. On the procedure:
[…] fragments or conidia suspensions of a fungus prepared either freshly from liquid cultures of the fungus or from cryogenic storage, are directly mixed into nutrient broth. DMSO solutions of the test compound (max. 10 mg/ml) are diluted with 0.025% Tween20 by a factor of 50 and 10 μl of this solution is pipetted into a microtiter plate (96-well format). The nutrient broth containing the fungal spores/mycelia fragments is then added to give an end concentration of the tested compound. The test plates are incubated in the dark at 24° C., and 96% relative humidity. The inhibition of fungal growth is determined photometrically after 2 to 7 days, depending on the pathosystem, and percent antifungal activity relative to the untreated check is calculated. Conidia of the fungus from cryogenic storage are directly mixed into nutrient broth (PDB potato dextrose broth). Alter placing a (DMSO) solution of test compound into a microtiter plate (96-well format), the nutrient broth containing the fungal spores is added. The test plates are incubated at 24° C., and the inhibition of growth is measured photometrically 3-4 days after application.

Series [2] concerns Puccinia recondita f. sp. tritici. Put plainly: Puccinia recondita f. sp. tritici / wheat / leaf disc preventative (brown rust). The series is classed as in vivo. To be noted: foliar, wheat leaf segments cv. Kanzler, preventative (inoculated 1 day after application), compared to untreated control. Here is the method:
Leaf disks or leaf segments of various plant species are cut from plants grown in a greenhouse. The cut leaf disks or segments are placed in multiwell plates (24-well format) onto water agar. The leaf disks are sprayed with a test solution before (preventative) or after (curative) inoculation. Compounds to be tested are prepared as DMSO solutions (max. 10 mg/ml) which are diluted to the appropriate concentration with 0.025% Tween20 just before spraying. The inoculated leaf disks or segments are incubated under defined conditions (temperature, relative humidity, light, etc.) according to the respective test system. A single evaluation of disease level is carried out 3 to 14 days after inoculation, depending on the pathosystem. Percent disease control relative to the untreated check leaf disks or segments is then calculated. Wheat leaf segments cv. Kanzler are placed on agar in multiwell plates (24-well format) and sprayed with the formulated test compound diluted in water. The leaf disks are inoculated with a spore suspension of the fungus 1 day after application. The inoculated leaf segments are incubated at 19° C. and 75% rh under a light regime of 12 h light/12 h darkness in a climate cabinet and the activity of a compound is assessed as percent disease control compared to untreated when an appropriate level of disease damage appears in untreated check leaf segments (7-9 days after application).

The test system is the same in series [3]. Put plainly: Puccinia recondita f. sp. tritici / wheat / leaf disc curative (brown rust). In kind it is in vivo. The following applies: foliar, 24 h, wheat leaf segments cv. Kanzler, curative (applied 1 day after inoculation), compared to untreated control, read-out: control of Puccinia recondita f. sp. tritic. Here is the method:
Leaf disks or leaf segments of various plant species are cut from plants grown in a greenhouse. The cut leaf disks or segments are placed in multiwell plates (24-well format) onto water agar. The leaf disks are sprayed with a test solution before (preventative) or after (curative) inoculation. Compounds to be tested are prepared as DMSO solutions (max. 10 mg/ml) which are diluted to the appropriate concentration with 0.025% Tween20 just before spraying. The inoculated leaf disks or segments are incubated under defined conditions (temperature, relative humidity, light, etc.) according to the respective test system. A single evaluation of disease level is carried out 3 to 14 days after inoculation, depending on the pathosystem. Percent disease control relative to the untreated check leaf disks or segments is then calculated. Wheat leaf segments cv. Kanzler are placed on agar in multiwell plates (24-well format). The leaf segments are inoculated with a spore suspension of the fungus. Plates are stored in darkness at 19° C., and 75% rh. The formulated test compound diluted in water is applied 1 day after inoculation. The leaf segments are incubated at 19° C., and 75% rh under a light regime of 12 h light/12 h darkness in a climate cabinet and the activity of a compound is assessed as percent disease control compared to untreated when an appropriate level of disease damage appears in untreated check leaf segments (6-8 days after application).

In the next series the test system is Phakopsora pachyrhizi. Put plainly: Phakopsora pachyrhizi / soybean / leaf disc preventative (Asian soybean rust). The series is classed as in vivo. To be noted: foliar, soybean leaf disks, compared to untreated control. Here is the method: Leaf disks or leaf segments of various plant species are cut from plants grown in a greenhouse. The cut leaf disks or segments are placed in multiwell plates (24-well format) onto water agar. The leaf disks are sprayed with a test solution before (preventative) or after (curative) inoculation. Compounds to be tested are prepared as DMSO solutions (max. 10 mg/ml) which are diluted to the appropriate concentration with 0.025% Tween20 just before spraying. The inoculated leaf disks or segments are incubated under defined conditions (temperature, relative humidity, light, etc.) according to the respective test system. A single evaluation of disease level is carried out 3 to 14 days after inoculation, depending on the pathosystem. Percent disease control relative to the untreated check leaf disks or segments is then calculated. Soybean leaf disks are placed on water agar in multiwell plates (24-well format) and sprayed with the formulated test compound diluted in water. One day after application leaf discs are inoculated by spraying a spore suspension on the lower leaf surface. After an incubation period in a climate cabinet of 24-36 hours in darkness at 20° C., and 75% rh leaf disc are kept at 20° C. with 12 h light/day and 75% rh. The activity of a compound is assessed as percent disease control compared to untreated when an appropriate level of disease damage appears in untreated check leaf disks (12-14 days after application).

Regarding `CN(C)N(CC(=O)NC(C)(C)C)C(=O)c1ccc(-c2noc(C(F)(F)F)n2)cc1` [Compound 1.1, N-tert-butyl-2-[dimethylamino-[4-[5-(trifluoromethyl)-1,2,4-oxadiazol-3-yl]benzoyl]amino]-acetamide], the inhibition of growth at 20 ppm in series [1] is at least 80%. Moreover, the pest or weed control at 200 ppm (in series [2]; in series [3]; in the series with Phakopsora pachyrhizi) was at least 80% each time.
As for `O=C(NN1CCOC1=O)c1ccc(-c2noc(C(F)(F)F)n2)cc1F` [Compound 1.3, 2-fluoro-N-(2-oxooxazolidin-3-yl)-4-[5-(trifluoromethyl)-1,2,4-oxadiazol-3-yl]benzamide], the melting point is 186 to 189 °C and 186.8 to 188.8 °C. The compound also returned an inhibition of growth at 20 ppm in series [1] of at least 80%. In addition, the pest or weed control at 200 ppm in series [2] was at least 80%. Besides, in series [3], the pest or weed control at 200 ppm is at least 80%. In the series with Phakopsora pachyrhizi, this compound showed a pest or weed control at 200 ppm of at least 80%.
With `O=C(Cc1ccc(-c2noc(C(F)(F)F)n2)cc1)NN1CCCCC1=O` [Compound 1.14, N-(2-oxo-1-piperidyl)-2-[4-[5-(trifluoromethyl)-1,2,4-oxadiazol-3-yl]phenyl]acetamide], the melting point is 165 to 170 °C. For the same compound, the pest or weed control at 200 ppm in series [2] was at least 80%. Moreover, in series [3], the pest or weed control at 200 ppm is at least 80%. In the series on Phakopsora pachyrhizi, this compound registered a pest or weed control at 200 ppm of at least 80%.
In turn, `O=C(NN1CCOCC1)c1ccc(-c2noc(C(F)(F)F)n2)cc1F` [Compound 1.15, 2-fluoro-N-morpholino-4-[5-(trifluoromethyl)-1,2,4-oxadiazol-3-yl]benzamide] yielded a melting point of 140 to 160 °C. This compound came in with an inhibition of growth at 20 ppm in series [1] of at least 80%. The pest or weed control at 200 ppm in series [2] is at least 80%. The pest or weed control at 200 ppm in series [3] is at least 80%. This compound also showed a pest or weed control at 200 ppm in the series on Phakopsora pachyrhizi of at least 80%.
Regarding `O=C(Cc1ccc(-c2noc(C(F)(F)F)n2)cc1)NN1CCOCC1` [Compound 1.17, N-morpholino-2-[4-[5-(trifluoromethyl)-1,2,4-oxadiazol-3-yl]phenyl]acetamide], the melting point lay within 182 to 188 °C. In series [2], this compound came in with a pest or weed control at 200 ppm of at least 80%. Moreover, in series [3], the pest or weed control at 200 ppm is at least 80%. Besides, the pest or weed control at 200 ppm in the series on Phakopsora pachyrhizi is at least 80%.
Take `O=C(NN1CCOC1=O)c1ccc(-c2noc(C(F)(F)F)n2)cc1` [Compound 1.19, N-(2-oxooxazolidin-3-yl)-4-[5-(trifluoromethyl)-1,2,4-oxadiazol-3-yl]benzamide]: the melting point is 196 to 200 °C. The compound further yielded an inhibition of growth at 20 ppm in series [1] of at least 80%. The pest or weed control at 200 ppm in series [2] is at least 80%. The pest or weed control at 200 ppm in series [3] was at least 80%. Also, the pest or weed control at 200 ppm with Phakopsora pachyrhizi is at least 80%.
With `CC(C)OCC1CN(NC(=O)c2ccc(-c3noc(C(F)(F)F)n3)cc2)C(=O)O1` (centres unmarked) [Compound 1.20, N-[5-(isopropoxymethyl)-2-oxo-oxazolidin-3-yl]-4-[5-(trifluoromethyl)-1,2,4-oxadiazol-3-yl]benzamide], the melting point was in the range of 192 to 197 °C. Moreover, the inhibition of growth at 20 ppm in series [1] was at least 80%. In the series on Phakopsora pachyrhizi, the pest or weed control at 200 ppm is at least 80%.
`O=C(Cc1ccc(-c2noc(C(F)(F)F)n2)cc1)NN1CCOC1=O` [Compound 1.21, N-(2-oxooxazolidin-3-yl)-2-[4-[5-(trifluoromethyl)-1,2,4-oxadiazol-3-yl]phenyl]acetamide]: the melting point was in the range of 184 to 187 °C. The compound further displayed an inhibition of growth at 20 ppm in series [1] of at least 80%. For the same compound, in series [2], the pest or weed control at 200 ppm is at least 80%. Besides, the pest or weed control at 200 ppm in series [3] was at least 80%. Moreover, in the series on Phakopsora pachyrhizi, the pest or weed control at 200 ppm is at least 80%.
Regarding `O=C(NNCCOC(F)F)c1ccc(-c2noc(C(F)(F)F)n2)cc1` [Compound 1.22, N′-[2-(difluoromethoxy)ethyl]-4-[5-(trifluoromethyl)-1,2,4-oxadiazol-3-yl]benzohydrazide], the inhibition of growth at 20 ppm in series [1] was at least 80%. The pest or weed control at 200 ppm (in series [2]; in series [3]; in the series with Phakopsora pachyrhizi) was at least 80% each time.
`O=C(NN1CCCCC1=O)c1ccc(-c2noc(C(F)(F)F)n2)cc1F` [Compound 1.23, 2-fluoro-N-(2-oxo-1-piperidyl)-4-[5-(trifluoromethyl)-1,2,4-oxadiazol-3-yl]benzamide]: the melting point was 120 to 136 °C. For the same compound, the inhibition of growth at 20 ppm in series [1] was at least 80%. The same compound gave a pest or weed control at 200 ppm in series [2] of at least 80%. Further, in series [3], the pest or weed control at 200 ppm is at least 80%. In addition, in the series with Phakopsora pachyrhizi, the pest or weed control at 200 ppm was at least 80%.
In the case of `O=C(NN1CCCCC1=O)c1ccc(-c2noc(C(F)(F)F)n2)c(F)c1` [Compound 1.24, 3-fluoro-N-(2-oxo-1-piperidyl)-4-[5-(trifluoromethyl)-1,2,4-oxadiazol-3-yl]benzamide], the melting point lay in the range of 180 to 200 °C. In addition, in series [1], the inhibition of growth at 20 ppm is at least 80%. In series [2], this compound had a pest or weed control at 200 ppm of at least 80%. Also, the pest or weed control at 200 ppm in series [3] is at least 80%. For the same compound, in the series with Phakopsora pachyrhizi, the pest or weed control at 200 ppm is at least 80%.
Compound `CN(C)NC(=O)Cc1ccc(-c2noc(C(F)(F)F)n2)cc1F` [Compound 1.26, 2-[2-fluoro-4-[5-(trifluoromethyl)-1,2,4-oxadiazol-3-yl]phenyl]-N′,N′-dimethyl-acetohydrazide] came in with a melting point of 156 to 158 °C. In series [1], this compound yielded an inhibition of growth at 20 ppm of at least 80%. Besides, in series [2], the pest or weed control at 200 ppm was at least 80%. Also, the pest or weed control at 200 ppm in series [3] was at least 80%. In addition, in the series with Phakopsora pachyrhizi, the pest or weed control at 200 ppm is at least 80%.
`CN(C)NC(=O)Cc1ccc(-c2noc(C(F)(F)F)n2)cc1` [Compound 1.27, N′,N′-dimethyl-2-[4-[5-(trifluoromethyl)-1,2,4-oxadiazol-3-yl]phenyl]-acetohydrazide] came in with a melting point of 180 to 182 °C. In series [1], this compound showed an inhibition of growth at 20 ppm of at least 80%. This compound also displayed a pest or weed control at 200 ppm in series [2] of at least 80%. Besides, the pest or weed control at 200 ppm in series [3] is at least 80%. The pest or weed control at 200 ppm in the series with Phakopsora pachyrhizi is at least 80%.

These data come from patent US20190292174A1, “MICROBIOCIDAL OXADIAZOLE DERIVATIVES” (SYNGENTA PARTICIPATIONS AG, priority 2016, published 2019).
